Laboratory results reported in paper PMC6792352, “Limited Chemical Structural Diversity Found to Modulate Thyroid Hormone Receptor in the Tox21 Chemical Library” (Environmental Health Perspectives, 2019).
Structures can show the parent of a compound that is named as a salt. Non-standard residues stand in square brackets, D forms with d. Residues, ends and D or L forms follow the SMILES beside them. pGlu = O=C1CC[C@@H](C(=O)O)N1; Thz = O=C(O)[C@@H]1CSCN1

Experiment: in vitro
Conditions: rat, gh3-tre-luc cells, AC50 (uM) modified / 1000

Structure (SMILES)	CC50 at 24 h
CCCCC(CC)COC(=O)c1ccc(C(=O)OCC(CC)CCCC)c(C(=O)OCC(CC)CCCC)c1 (stereo not shown) [Tris(2-ethylhexyl) trimellitate]	> 90 µM
O=S(=O)(O)CC(S)CS (stereo not shown) [Sodium 2,3-dimercaptopropanesulfonate hydrate]	> 50 µM
O=C(O)c1ccc[n+]([O-])c1 [Nicotinic acid 1-oxide]	> 50 µM
OCc1ccco1 [Furfuryl alcohol]	> 90 µM
C=CCOC(=O)c1ccc(C(=O)OCC=C)c(C(=O)OCC=C)c1 [Triallyl trimellitate]	> 90 µM
Cc1ccc(C(C)NC(=O)[C@@H](NC(=O)OC(C)C)C(C)C)cc1 (stereo partly shown) [Iprovalicarb]	> 90 µM
N#C[C@@H]1C[C@@H]2C[C@@H]2N1C(=O)[C@@H](N)C12CC3CC(CC(O)(C3)C1)C2 [Saxagliptin]	> 50 µM
Cc1cc(N)no1 [5-Methyl-3-isoxazolamine]	> 100 µM
C[C@H]1C[C@@H](O)CC(C)(C)C1 (stereo in doubt) [(1R,5R)-3,3,5-trimethylcyclohexanol]	> 90 µM
CO[C@H]1C[C@H](O[C@H]2[C@H](C)O[C@@H](O[C@@H]3/C(C)=C/C[C@@H]4C[C@@H](C[C@]5(C=C[C@H](C)[C@@H](C6CCCCC6)O5)O4)OC(=O)[C@@H]4C=C(C)[C@@H](O)[C@H]5OC/C(=C\C=C\[C@@H]3C)[C@]54O)C[C@@H]2OC)O[C@@H](C)[C@@H]1O [Doramectin]	2.94 µM
CC1(C)C(C=C(Cl)Cl)C1C(=O)OCc1cccc(Oc2ccccc2)c1 (stereo not shown) [Permethrin]	> 90 µM
CC(C)COC(=O)c1ccccc1O [Isobutyl salicylate]	> 90 µM
Cc1ccc2c(n1)Oc1ccc(C(C)C(=O)OCC(=O)N(C)C)cc1C2 (stereo not shown) [Mepranoprofen arbamel]	> 50 µM
CCN1/C(=C/C=C/c2sc3ccccc3[n+]2CC)Sc2ccccc21 [3,3'-Diethylthiacarbocyanine iodide]	1.67 µM
COc1ccc(-c2ccc3cc(C(=O)O)ccc3c2)cc1[C@]12C[C@H]3C[C@H](C[C@H](C3)C1)C2 [Adapalene]	1.88 µM
NC(=S)NC(N)=S [2,4-Dithiobiuret]	> 90 µM
Cc1ccc(O)c2ncccc12 [Tiliquinol]	4.67 µM
NS(=O)(=O)c1cc2c(cc1C(F)(F)F)NC(Cc1ccccc1)NS2(=O)=O (stereo not shown) [Bendroflumethiazide]	> 20 µM
O=C(O)c1c(Cl)c(Cl)c(Cl)c(Cl)c1-c1c2cc(I)c(=O)c(I)c-2oc2c(I)c(O)c(I)cc12 [Rose bengal sodium]	20.9 µM
Nc1c2c(nc3ccccc13)CCCC2O (stereo not shown) [Hydroxytacrine maleate]	> 50 µM
Oc1ccc(O)c2c(O)cccc12 [1,4,5-Trihydroxynaphthalene]	> 90 µM
O=C(O)CSCC(=O)NC1CCSC1=O (stereo not shown) [Erdosteine]	> 50 µM
O=C(OCC1CCC2OC2C1)C1CCC2OC2C1 (stereo not shown) [ECC]	> 100 µM

Structure (SMILES)	CC50 at 24 h
CCCN(CC)CC1COC2(CCC(C(C)(C)C)CC2)O1 (stereo not shown) [Spiroxamine]	> 90 µM
COC(=O)[C@]1(C)CCC[C@@]2(C)[C@H]1CC=C1C=C(C(C)C)CC[C@@H]12 [Methyl abietate]	42.6 µM
C=C(C#N)C(=O)OCC [Ethyl cyanoacrylate]	> 90 µM
CC(C)CC(C)N(c1ccccc1)c1ccc(N)cc1 (stereo not shown) [N-(4-Methylpentan-2-yl)-N-phenylbenzene-1,4-diamine]	28.5 µM
COC(=O)c1ccc(C)cc1 [Methyl 4-methylbenzoate]	> 90 µM
CC1(C)[C@H](C=C(Cl)Cl)[C@H]1C(=O)O[C@H](C#N)c1cccc(Oc2ccccc2)c1 [Cypermethrin]	> 50 µM
C[C@H](CSC(=O)c1ccccc1)C(=O)N1C[C@@H](Sc2ccccc2)C[C@H]1C(=O)O [Zofenopril]	> 50 µM
CC(C)(C)C(=O)c1ccccc1 [tert-Butyl phenyl ketone]	> 90 µM
Nc1nc(N)nc(NC2CC2)n1 [Cyromazine]	> 90 µM
O=C1CCCC(=O)C1 [1,3-Cyclohexanedione]	> 90 µM
N[C@@H](CSCC(=O)O)C(=O)O [Carbocysteine]	> 50 µM
COC(=O)NCCC[Si](OC)(OC)OC [Methyl [3-(trimethoxysilyl)propyl]carbamate]	> 90 µM
C1CCC(C(CC2CCCCN2)C2CCCCC2)CC1 (stereo not shown) [Perhexiline maleate]	4.32 µM
CC(=O)c1ccccc1[N+](=O)[O-] [2-Nitroacetophenone]	> 90 µM
CN(C)CCC#N [3-Dimethylaminopropionitrile]	> 90 µM
CCCCCCCCCCC(CO)CCCCCCCC (stereo not shown) [2-Octyl-1-dodecanol]	> 90 µM
CCCCCC/C=C\CCCCCCCC(=O)O [(Z)-Hexadec-9-enoic acid]	> 90 µM
Cc1oc(C)c(C(=O)Nc2ccccc2)c1C [Methfuroxam]	> 90 µM
CNC(=O)N(C)c1nc2ccccc2s1 [Methabenzthiazuron]	> 90 µM
CC1=CC(=O)CC(C)(C)[C@@]1(O)/C=C/C(C)=C\C(=O)O [Abscisic acid]	> 90 µM
Oc1ncnc2[nH]ncc12 [Allopurinol]	> 90 µM
CC(C)(C#N)N=NC(C)(C)C#N [Azobisisobutyronitrile]	> 90 µM
NC(=O)CC[C@H](Nc1ccc([N+](=O)[O-])cc1)C(=O)O [N2-(4-Nitrophenyl)-L-glutamine hydrochloride]	> 90 µM

Structure (SMILES)	CC50 at 24 h
O=C(c1ccc(O)cc1)c1ccc(O)cc1O [2,4,4'-Trihydroxybenzophenone]	> 90 µM
O=C(Nc1ccc2c(O)c(N=Nc3ccc(N=Nc4ccc(S(=O)(=O)O)cc4)cc3)c(S(=O)(=O)O)cc2c1)c1ccccc1 [C.I. Direct Red 81 disodium salt]	35.6 µM
CCCCCCCOC(C)=O [Heptyl acetate]	> 90 µM
CCCCCCCCCCCC[N+](C)(C)CCCCCCCCCCCC [Didodecyldimethylammonium bromide]	12.2 µM
CN(C)Cc1ccccc1O [2-((Dimethylamino)methyl)phenol]	> 90 µM
Cc1cc(C(C)(C)c2ccc(O)c(C)c2)ccc1O [3,3'-Dimethylbisphenol A]	> 90 µM
Clc1nc(C(Cl)(Cl)Cl)c(Cl)c(Cl)c1Cl [2,3,4,5-Tetrachloro-6-(trichloromethyl)pyridine]	22.4 µM
CCN(CC)CCOc1ccccc1C(=O)CCc1ccccc1 [Etafenone]	18.1 µM
COc1ccnc(C[S+]([O-])c2nc3ccc(OC(F)F)cc3[nH]2)c1OC (stereo not shown) [Pantoprazole sodium]	> 90 µM
Cc1cc2c(OCC(CNC(C)(C)C)OC(=O)c3ccccc3)cccc2[nH]1 (stereo not shown) [Bopindolol]	42.5 µM
O=c1[nH]cnc2nc[nH]c12 [Hypoxanthine]	> 50 µM
COc1ccc(-c2noc(CC(=O)O)c2-c2ccc(OC)cc2)cc1 [Mofezolac]	> 50 µM
CCCN1CCC[C@@H]2Cc3nc(N)ncc3C[C@H]21 [Quinelorane]	> 50 µM
O=C(O)Cc1cc(I)c(Oc2ccc(O)c(I)c2)c(I)c1 [Tiratricol]	> 20 µM
Oc1ccc(C2(c3ccc(O)cc3)CCCCC2)cc1 [Bisphenol Z]	39.8 µM
CC(COc1ccccc1)NN (stereo not shown) [Phenoxypropazine]	> 50 µM
CCc1nn(C2CCCCC2)c2cc(C3(C#N)CCC(C(=O)O)CC3)ccc12 (stereo not shown) [CP-401387]	49.9 µM
O=C1CC[C@@H](C(=O)N2CSC[C@H]2C(=O)O)N1 [Pidotimod] ([pGlu]-[Thz]-OH)	> 50 µM
C[N+]1(CC2COC(c3ccccc3)(c3ccccc3)O2)CCCCC1 (stereo not shown) [Anacolin]	> 50 µM
CC[C@H](CC[C@@H](C)[C@H]1CC[C@H]2[C@@H]3CC=C4C[C@@H](O)CC[C@]4(C)[C@H]3CC[C@]12C)C(C)C [beta-Sitosterol]	> 50 µM
C=C(C)C(=O)OCCN(C)C [2-(Dimethylamino)ethyl methacrylate]	> 90 µM
CC(=O)Nc1ccc(NC(=S)NC(=O)c2ccc(C(C)(C)C)cc2)cc1 [Tenovin-1]	7.56 µM
COCCOCCOCCOCCOC [2,5,8,11,14-Pentaoxapentadecane]	> 90 µM

Same assay, conditions: rat, gh3-tre-luc cells, AC50 (uM) modified / 1000, Tox21_110001=Tox21_110079; viability, 1 nM T3 present, 24 h

Structure (SMILES)	CC50 at 24 h
COC(=O)C1=CCCN(C)C1 [Arecoline]	> 50 µM

Same assay, conditions: rat, gh3-tre-luc cells, AC50 (uM) modified / 1000, Tox21_110001=Tox21_200140; viability, 1 nM T3 present, 24 h

Structure (SMILES)	CC50 at 24 h
O=C(O)C(Br)CBr (stereo not shown) [2,3-Dibromopropionic acid]	> 90 µM

Same assay, conditions: rat, gh3-tre-luc cells, AC50 (uM) modified / 1000, Tox21_110001=Tox21_200235; viability, 1 nM T3 present, 24 h

Structure (SMILES)	CC50 at 24 h
Cl/C=C/CCl [1,3-Dichloropropene]	> 90 µM

Same assay, conditions: rat, gh3-tre-luc cells, AC50 (uM) modified / 1000, Tox21_110001=Tox21_200724; viability, 1 nM T3 present, 24 h

Structure (SMILES)	CC50 at 24 h
ClC(Cl)(Cl)C(Cl)(Cl)Cl [Hexachloroethane]	> 90 µM

Same assay, conditions: rat, gh3-tre-luc cells, AC50 (uM) modified / 1000, Tox21_110001=Tox21_200824; viability, 1 nM T3 present, 24 h

Structure (SMILES)	CC50 at 24 h
C=CCCl [Allyl chloride]	> 100 µM

Same assay, conditions: rat, gh3-tre-luc cells, AC50 (uM) modified / 1000, Tox21_110001=Tox21_201486; viability, 1 nM T3 present, 24 h

Structure (SMILES)	CC50 at 24 h
Cn1c(-c2ccccc2)cc(-c2ccccc2)[n+]1C [Difenzoquat metilsulfate]	> 90 µM

Same assay, conditions: rat, gh3-tre-luc cells, AC50 (uM) modified / 1000, Tox21_110001=Tox21_202244; viability, 1 nM T3 present, 24 h

Structure (SMILES)	CC50 at 24 h
Clc1ccccc1-c1ccccc1Cl [2,2'-Dichlorobiphenyl]	> 100 µM

Same assay, conditions: rat, gh3-tre-luc cells, AC50 (uM) modified / 1000, Tox21_110001=Tox21_202725; viability, 1 nM T3 present, 24 h

Structure (SMILES)	CC50 at 24 h
CN1[C@@H]2CC[C@H]1CC(O)C2 (stereo partly shown) [Tropine]	> 100 µM

Same assay, conditions: rat, gh3-tre-luc cells, AC50 (uM) modified / 1000, Tox21_110001=Tox21_202866; viability, 1 nM T3 present, 24 h

Structure (SMILES)	CC50 at 24 h
ClCCCCBr [1-Bromo-4-chlorobutane]	> 90 µM

Same assay, conditions: rat, gh3-tre-luc cells, AC50 (uM) modified / 1000, Tox21_110001=Tox21_302210; viability, 1 nM T3 present, 24 h

Structure (SMILES)	CC50 at 24 h
CNC(=O)Oc1c(C(C)(C)C)cc(C)cc1C(C)(C)C [Terbucarb]	> 90 µM
